The values below come from patent US8771724B2, “Percutaneous absorption enhancer and transdermal preparation using the same” (TOA EIYO Ltd., priority 2008, dated 2014).

How the values of the data set were obtained:
A permeation test was carried out based on the following procedure. First, an excised skin (Yucatan miniature swine or hairless mouse) was placed in a vertical diffusion cell in which temperature was kept at 37° C., and a receptor phase was filled with 7 mL of a phosphate-buffered saline (PBS, a pH of 7.5). The whole was left to stand still for one hour. […] Then, the test was started. […] Note that after each of the collections, an equivalent amount of PBS was supplemented into the receptor phase. Each PBS collected from the receptor phase was measured for a drug concentration by an HPLC method. […] Further, the slant of a permeation curve at the time when the permeation rate reached a steady state was used to calculate a skin permeation rate (μg/hr/cm^2).
An enhancing effect on drug permeation was evaluated for the case where a 1% isopropyl myristate solution was used as a control and for the case where 1% each of n-octyl-β-D-thioglucopyranoside and dioctyl sodium sulfosuccinate was added.

Where a name gives a salt, the structure may show the parent alone. Read-outs that look alike come from different tables or passages of the source.

As to `CCOC(=O)[C@H](CCc1ccccc1)N[C@@H](C)C(=O)N1[C@H](C(=O)O)C[C@@H]2CCC[C@@H]21` [Ramipril, ramipril], under “hairless, mouse, 24 h, pH 7.5”, the “Percutaneous absorption enhancing action (Example/Comparative Example), cumulative permeation amount for 24 hours” value is on record as 5 times. Further, where the note is “hairless, mouse, pH 7.5”, the “Percutaneous absorption enhancing action (Example/Comparative Example), skin permeation rate” value was 8 times.
On the same counts, the results for `COc1ccccc1N1CCN(CCCNc2cc(=O)n(C)c(=O)n2C)CC1` [Urapidil, urapidil] are 20 times and 18 times.
On the same counts, the results for `CCOC(=O)[C@H](CCc1ccccc1)N[C@@H](C)C(=O)N1CCC[C@H]1C(=O)O` [Enalapril maleate, enalapril maleate] are 4 times and 44 times.
On to `CCC[C@H](N[C@@H](C)C(=O)N1[C@H](C(=O)O)C[C@@H]2CCCC[C@@H]21)C(=O)OCC` [Perindopril erbumine, perindopril erbumine], for which the “Percutaneous absorption enhancing action (Example/Comparative Example), cumulative permeation amount for 24 hours” value (hairless, mouse, 24 h, pH 7.5) was 3 times. The “Percutaneous absorption enhancing action (Example/Comparative Example), skin permeation rate” value (hairless, mouse, pH 7.5) turned out to be 12 times.
On the same counts, the results for `CCOC(=O)[C@H](CCc1ccccc1)N[C@@H](C)C(=O)N(CC(=O)O)C1Cc2ccccc2C1` [Delapril hydrochloride, delapril hydrochloride] are 42 times and 26 times.
For `CC(C)c1nc(N(C)S(C)(=O)=O)nc(-c2ccc(F)cc2)c1/C=C/[C@@H](O)C[C@@H](O)CC(=O)[O-].CC(C)c1nc(N(C)S(C)(=O)=O)nc(-c2ccc(F)cc2)c1/C=C/[C@@H](O)C[C@@H](O)CC(=O)[O-].[Ca+2]` [Rosuvastatin calcium, rosuvastatin calcium], the “Percutaneous absorption enhancing action (Example/Comparative Example), cumulative permeation amount for 24 hours” value was determined as 46 times and the “Percutaneous absorption enhancing action (Example/Comparative Example), skin permeation rate” value came out at 138 times.
For the molecule `CCOc1cc(CC(=O)N[C@@H](CC(C)C)c2ccccc2N2CCCCC2)ccc1C(=O)O` [Repaglinide, repaglinide], the “Percutaneous absorption enhancing action (Example/Comparative Example), cumulative permeation amount for 24 hours” value (hairless, mouse, 24 h, pH 7.5) came to 27 times. Further, the “Percutaneous absorption enhancing action (Example/Comparative Example), skin permeation rate” value (hairless, mouse, pH 7.5) was 33 times.
On the same counts, the results for `CNC[C@H](O)c1cccc(O)c1` [Phenylephrine hydrochloride, phenylephrine hydrochloride] are 4 times and 8 times.
On the same counts, the results for `CN(Cc1cnc2nc(N)nc(N)c2n1)c1ccc(C(=O)N[C@@H](CCC(=O)O)C(=O)O)cc1` [Methotrexate, methotrexate] are 250 times and 180 times.
On the same counts, the results for `CCOc1nc2cccc(C(=O)O)c2n1Cc1ccc(-c2ccccc2-c2nnn[nH]2)cc1` [Candesartan, candesartan] are 15 times and 183 times.
On to `CCOC(=O)[C@H](CCc1ccccc1)N[C@@H](C)C(=O)N1C(=O)N(C)C[C@H]1C(=O)O` [Imidapril hydrochloride, imidapril hydrochloride], for which the “Percutaneous absorption enhancing action (Example/Comparative Example), cumulative permeation amount for 24 hours” value (hairless, mouse, 24 h, pH 7.5) was 12 times. Also, the “Percutaneous absorption enhancing action (Example/Comparative Example), skin permeation rate” value (hairless, mouse, pH 7.5) is recorded as 40 times.
On the same counts, the results for `CC(=O)N[C@H]1[C@H]([C@H](O)[C@H](O)CO)OC(C(=O)O)=C[C@@H]1N=C(N)N` [Zanamivir hydrate, zanamivir hydrate] are 47 times and 92 times.
On the same counts, the results for `CCCCC(=O)N(Cc1ccc(-c2ccccc2-c2nnn[nH]2)cc1)[C@H](C(=O)O)C(C)C` [Valsartan, valsartan] are 4 times and 12 times.
On the same counts, the results for `Cc1cccc(Nc2ccncc2S(=O)(=O)NC(=O)NC(C)C)c1` [Torasemide, torasemide] are 29 times and 40 times.
`C[C@]1(Cn2ccnn2)[C@H](C(=O)O)N2C(=O)C[C@H]2S1(=O)=O` [Tazobactam, tazobactam]: where the note is “hairless, mouse, 24 h, pH 7.5”, the “Percutaneous absorption enhancing action (Example/Comparative Example), cumulative permeation amount for 24 hours” value turned out to be 6 times. In addition, under “hairless, mouse, pH 7.5”, the “Percutaneous absorption enhancing action (Example/Comparative Example), skin permeation rate” value is 21 times.
On the same counts, the results for `CCOC(=O)[C@H](CCc1ccccc1)N[C@H]1CS[C@H](c2cccs2)CN(CC(=O)O)C1=O` [Temocapril hydrochloride, temocapril hydrochloride] are 27 times and 46 times.
With `CCOC(=O)[C@H](CCc1ccccc1)N[C@H]1CCCN2CCC[C@@H](C(=O)O)N2C1=O` [Cilazapril, cilazapril], the “Percutaneous absorption enhancing action (Example/Comparative Example), cumulative permeation amount for 24 hours” value (hairless, mouse, 24 h, pH 7.5) turned out to be 13 times. Besides, the “Percutaneous absorption enhancing action (Example/Comparative Example), skin permeation rate” value (hairless, mouse, pH 7.5) came to 16 times.
On the same counts, the results for `CC1(C)S[C@@H]2[C@H](NC(=O)[C@H](N)c3ccc(O)cc3)C(=O)N2[C@H]1C(=O)O` [Amoxicillin trihydrate, amoxicillin trihydrate] are 234 times and 254 times.
On the same counts, the results for `NNc1nncc2ccccc12` [Hydralazine hydrochloride, hydralazine hydrochloride] are 344 times and 1,411 times.
With `N[C@@H](Cc1ccc(O)c(O)c1)C(=O)O` [Levodopa, levodopa], the “Percutaneous absorption enhancing action (Example/Comparative Example), cumulative permeation amount for 24 hours” value (hairless, mouse, 24 h, pH 7.5) was 461 times. Moreover, the “Percutaneous absorption enhancing action (Example/Comparative Example), skin permeation rate” value (hairless, mouse, pH 7.5) is recorded as 289 times.
On the same counts, the results for `CC(C)n1c(/C=C/C(O)CC(O)CC(=O)O)c(-c2ccc(F)cc2)c2ccccc21` (centres unmarked) [Fluvastatin sodium, fluvastatin sodium] are 28 times and 54 times.
For `NS(=O)(=O)c1cc(C(=O)O)cc(N2CCCC2)c1Oc1ccccc1` [Piretanide, piretanide], where the note is “hairless, mouse, 24 h, pH 7.5”, the “Percutaneous absorption enhancing action (Example/Comparative Example), cumulative permeation amount for 24 hours” value was 34 times. Also, the “Percutaneous absorption enhancing action (Example/Comparative Example), skin permeation rate” value (hairless, mouse, pH 7.5) was determined as 51 times.
On the same counts, the results for `CCCc1nc(C(C)(C)O)c(C(=O)OCc2oc(=O)oc2C)n1Cc1ccc(-c2ccccc2-c2nnn[nH]2)cc1` [Olmesartan medoxomil, olmesartan medoxomil] are 75 times and 94 times.
Consider `N[C@@H](C(=O)N[C@@H]1C(=O)N2C(C(=O)O)=C(Cl)CS[C@H]12)c1ccccc1` [Cefaclor, cefaclor], for which the “Percutaneous absorption enhancing action (Example/Comparative Example), cumulative permeation amount for 24 hours” value (hairless, mouse, 24 h, pH 7.5) is reported as 420 times. For the same molecule, the “Percutaneous absorption enhancing action (Example/Comparative Example), skin permeation rate” value (hairless, mouse, pH 7.5) stood at 962 times.
Take `COc1cc(N)cn[n+]1-c1ccccc1` [Amezinium metilsulfate, amezinium metilsulfate]: the “Percutaneous absorption enhancing action (Example/Comparative Example), cumulative permeation amount for 24 hours” value (hairless, mouse, 24 h, pH 7.5) is 7 times. In addition, the “Percutaneous absorption enhancing action (Example/Comparative Example), skin permeation rate” value (hairless, mouse, pH 7.5) is given as 24 times.
